Each compound was assayed against T1, APOL1 G2 (Homo sapiens, UniProt O14791, DEL388-389) (assay: APOL1-mediated calcium transport (calcium influx) assay, HEK T-REx/GCaMP6f/APOL1 G2 K6.3 cells, FLIPR TETRA). Settings: prevention of calcium influx; geometric mean of at least 2 assay runs; † = average of a technical replicate from a single assay run.
T1 construct: expressed in transfected cells; host or cells: HEK293 T-REx clonal line stably expressing GCaMP6f (HEK T-REx/GCaMP6f/APOL1 G2 K6.3), doxycycline induced
T1 sequence (O14791 with tags, fused parts or gaps DEL388-389): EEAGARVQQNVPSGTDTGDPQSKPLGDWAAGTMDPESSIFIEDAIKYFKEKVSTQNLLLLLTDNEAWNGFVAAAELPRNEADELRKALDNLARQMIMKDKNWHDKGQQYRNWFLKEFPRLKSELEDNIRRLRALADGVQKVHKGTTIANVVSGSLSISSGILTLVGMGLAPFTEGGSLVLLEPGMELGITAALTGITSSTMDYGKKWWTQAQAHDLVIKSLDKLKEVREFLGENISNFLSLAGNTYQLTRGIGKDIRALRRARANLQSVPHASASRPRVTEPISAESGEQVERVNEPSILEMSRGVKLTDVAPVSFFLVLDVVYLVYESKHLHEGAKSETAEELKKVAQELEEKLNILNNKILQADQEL
Assay type: cell-based
Method in brief: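 A HEK293 T-REx clone stably expressing GCaMP6f had APOL1 G2 induced with doxycycline (20 ng/mL solution added) for 6 h. Cells were then washed into Ca2+-free Tyrode's buffer (pH 7.4) and preincubated with compounds (duplicate 8-point) for 10 min at room temperature. Ca2+ injection to 5 mM final produced FLIPR GCaMP fluorescence, giving AC50 for influx inhibition (geometric mean, ≥2 runs).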
`N#Cc1ccc2c(c1)C1(CCN(CCOc3ccc(C(N)=O)c(C(F)F)c3)CC1)C(=O)N2` [Compound 250, 4-(2-{5-cyano-2-oxo-1,2-dihydrospiro[indole-3,4′-piperidin]-1′-yl}ethoxy)-2-(difluoromethyl)benzamide] was tested, and the AC50 was 0.559 µM.
In the case of `Cn1c(=O)[nH]c2cc(OCCN3CCC4(CC3)C(=O)Nc3ccc(Cl)cc34)cnc21` [Compound 247, 5-chloro-1′-[2-({3-methyl-2-oxo-1H,2H,3H-imidazo[4,5-b]pyridin-6-yl}oxy)ethyl]-1,2-dihydrospiro[indole-3,4′-piperidin]-2-one], the AC50 is reported as 0.806 µM.
`CN(C)C(=O)c1ccc(OCCN2CCC3(CC2)C(=O)Nc2ccc(Cl)cc23)cc1F` [Compound 230, 4-(2-{5-chloro-2-oxo-1,2-dihydrospiro[indole-3,4′-piperidin]-1′-yl}ethoxy)-2-fluoro-N,N-dimethylbenzamide] gave an AC50 of 0.891 µM.
Work on `CS(=O)(=O)c1ccc(OCCN2CCC3(CC2)C(=O)Nc2ccc(C#N)cc23)cc1C(F)CF` (single isomer, unassigned) [Compound 221, 1′-(2-{3-[(1S or 1R)-1,2-difluoroethyl]-4-methanesulfonyl-phenoxy}ethyl)-2-oxo-1,2-dihydrospiro [indole-3,4′-piperidine]-5-carbonitrile] yielded an AC50 of 0.598 µM.
Work on `CS(=O)(=O)c1ccc(OCCN2CCC3(CC2)C(=O)Nc2ccc(Cl)cc23)cc1C(F)F` [Compound 197, 5-chloro-1′-{2-[3-(difluoromethyl)-4-methanesulfonylphenoxy]ethyl}-1,2-dihydrospiro[indole-3,4′-piperidin]-2-one] yielded an AC50 of 0.889 µM.
`COCCN1C(=O)C2(CCN(CCOc3ccc(S(C)(=O)=O)cc3)CC2)c2cc(Cl)ccc21` [Compound 20, 5-chloro-1′-[2-(4-methanesulfonylphenoxy)ethyl]-1-(2-methoxyethyl)-1,2-dihydrospiro[indole-3,4′-piperidin]-2-one] was tested, and the AC50 was 0.348 µM.
`CN1C(=O)C2(CCN(CCOc3ccc(C4(S(C)(=O)=O)CC(O)C4)cc3)CC2)c2cc(C(F)F)ccc21` (single isomer, unassigned) [Compound 278, 5-(difluoromethyl)-1-methyl-1′-(2-{4-[(cis) or (trans)-3-hydroxy-1-methanesulfonylcyclobutyl]phenoxy}ethyl)-1,2-dihydrospiro[indole-3,4′-piperidin]-2-one] was tested, and the AC50 was 0.769 µM.
With `O=C1CCc2cc(OCCN3CCC4(CC3)C(=O)Nc3ccc(Cl)cc34)cnc2N1[C@H]1C[C@@](O)(C2CC2)C1` (single isomer, unassigned) [Compound 297, 5-chloro-1′-[2-({7-oxo-8-[(trans)-3-cyclopropyl-3-hydroxycyclobutyl]-5,6,7,8-tetrahydro-1,8-naphthyridin-3-yl}oxy)ethyl]-1,2-dihydrospiro[indole-3,4′-piperidin]-2-one] the AC50 was 0.937 µM.
Compound `O=C1Nc2ccc(Cl)cc2C12CCN(CCOc1ccc(S(=O)(=O)CCO)cc1)CC2` [Compound 198, 5-chloro-1′-{2-[4-(2-hydroxyethanesulfonyl)phenoxy)ethyl}-1,2-dihydrospiro[indole-3,4′-piperidin]-2-one] has an AC50 of 0.631 µM.
In the case of `C[C@@H](COc1ccc(S(C)(=O)=O)c(C(F)F)c1)N1CCC2(CC1)C(=O)Nc1ccc(C#N)cc12` (single isomer, unassigned) [Compound 212], the AC50 is reported as 1.36 µM.
With `CC(O)c1ncc(OCCN2CCC3(CC2)C(=O)Nc2ccc(C(F)F)cc23)cc1C(F)(F)F` (single isomer, unassigned) [Compound 288, 5-(difluoromethyl)-1′-[2-({6-[(1R) or (1S)-1-hydroxyethyl]-5-(trifluoromethyl)pyridin-3-yl}oxy)ethyl]-1,2-dihydrospiro[indole-3,4′-piperidin]-2-one] the AC50 was 0.369 µM.
Compound `O=C1Nc2ccc(Cl)cc2C12CCN(CCOc1ccc(S(=O)(=O)C3(C(=O)N4CCC4)CC3)cc1)CC2` [Compound 228, 1′-[2-(4-{[1-(azetidine-1-carbonyl)cyclopropyl]sulfonyl}phenoxy)ethyl]-5-chloro-1,2-dihydrospiro[indole-3,4′-piperidin]-2-one] has an AC50 of 1.2 µM.

Source: patent publication US12344610B2, “APOL1 inhibitors and methods of use” (Maze Therapeutics, Inc., priority 2022, dated 2025)
